# Laboratory results published in patent US20250000805A1, “VALBENAZINE COMPOSITIONS” (Neurocrine Biosciences, Inc., priority 2021, published 2025).
# Test: Stability of dissolution standards and dissolution samples at ambient lab conditions
# Format: physicochemical
# Description: 40.5±4.0 mg of valbenazine ditosylate reference standard (equivalent to 22.22 mg of valbenazine free base) was added to a 250-mL volumetric flask. Diluent (0.1 N HCl dissolution media) was added to the flask, up to about 75% of the volume of the flask. The contents of the flask were mixed well, and sonicated if necessary, to provide a standard solution containing 0.0889 mg/mL valbenazine free base. The standard was stable for 17 days, stored at ambient lab conditions.
# 10.12±1.0 mg of valbenazine ditosylate reference standard (equivalent to 5.55 mg of valbenazine free base) was added to a 250-mL volumetric flask. Diluent (0.1N HCl dissolution media) was added to the flask, up to about 75% of the volume of the flask. […]
# (§1) Dissolution was measured according to Table 8, above. After completion of the dissolution, the end temperature and observations for each vessel were recorded. […]
# as §1
# (§2) Dissolution was measured according to Table 9, above. After completion of the dissolution, the end temperature and observations for each vessel were recorded. […]
# as §2
smiles,measurement,setting,value
"COc1cc2c(cc1OC)[C@H]1C[C@@H](OC(=O)[C@@H](N)C(C)C)[C@H](CC(C)C)CN1CC2.Cc1ccc(S(=O)(=O)O)cc1.Cc1ccc(S(=O)(=O)O)cc1 [L-Valine, (2R,3R,11bR)-1,3,4,6,7,11b-hexahydro-9,10-dimethoxy-3-(2-methylpropyl)-2H-benzo[a]quinolizin-2-yl ester, 4-methylbenzenesulfonate (1:2)]",time the dissolution standard was stable,0.0222 mg/mL valbenazine free base in 0.1N HCl,7 days
same,time the dissolution standard was stable,0.0889 mg/mL valbenazine free base in 0.1 N HCl,17 days
